In PubChem BioAssay (NCI):
“And” between values parts separate entries of the source, which are not always exact repeats. Identical values can stand only once.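 Following 48 hours of exposure in 96-well plates, responses at five concentrations were used to interpolate endpoints linearly. Abbreviation: GI50, concentration required for 50% inhibition of growth. TGI denotes the concentration required for complete inhibition of growth.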

Tests used:
Experiment in all cases: growth of human tumour cells (NCI), 48 h
SNB-75 CNS = tested on: SNB-75 CNS
SW-620 colon = tested on: SW-620 colon
A549 NSCLC = tested on: A549 NSCLC
HL-60(TB) leukemia = tested on: HL-60(TB) leukemia
T-47D breast = tested on: T-47D breast
786-0 renal = tested on: 786-0 renal
HCC-2998 colon = tested on: HCC-2998 colon
M14 melanoma = tested on: M14 melanoma
LOX IMVI melanoma = tested on: LOX IMVI melanoma
MDA-MB-435 = tested on: MDA-MB-435

Structure (SMILES) | GI50 (SNB-75 CNS) | GI50 (SW-620 colon) | TGI (SW-620 colon) | GI50 (A549 NSCLC) | TGI (A549 NSCLC) | GI50 (HL-60(TB) leukemia) | TGI (HL-60(TB) leukemia) | GI50 (T-47D breast) | TGI (T-47D breast) | GI50 (786-0 renal) | TGI (786-0 renal) | GI50 (HCC-2998 colon) | TGI (HCC-2998 colon) | GI50 (M14 melanoma) | TGI (M14 melanoma) | GI50 (LOX IMVI melanoma) | TGI (LOX IMVI melanoma) | GI50 (MDA-MB-435) | TGI (MDA-MB-435) | TGI (SNB-75 CNS) [µM]
O=C1NC(=O)[C@@H](c2cn3c4c(cccc24)CCC3)[C@@H]1c1c[nH]c2ccccc12 | 0.348 µM and 0.198 µM | 0.391 µM and 0.354 µM | > 10 µM and 15.2 µM | 0.617 µM and 0.516 µM | > 10 µM and 16.4 µM | 0.348 µM and 0.35 µM | > 4.06 µM and 6.88 µM | 0.456 µM and 0.625 µM | > 10 µM and 32.4 µM | 0.544 µM and 0.809 µM | > 10 µM and 18.8 µM | 0.59 µM and 0.49 µM | > 10 µM and 5.82 µM | 0.31 µM and 0.372 µM | > 10 µM and 10.8 µM | 0.601 µM and 0.67 µM | > 10 µM and 14.8 µM | 0.146 µM and 0.125 µM | 0.431 µM and 0.367 µM | –
CCOC(=O)Oc1c(OC)cc(C(=O)c2ccc(OC)c(OC(=O)CCl)c2OC)cc1OC | 0.528 µM | 0.455 µM | > 100 µM | 3.39 µM | > 100 µM | – | – | 7.32 µM | > 100 µM | 3.45 µM | > 100 µM | 3.36 µM | > 100 µM | 0.491 µM | > 100 µM | 0.677 µM | > 100 µM | 0.239 µM | 0.773 µM | > 100
O=C1CCCSCCCC(=O)CCCSCCC1 | – | – | > 100 µM | – | > 100 µM | – | > 100 µM | – | > 100 µM | – | > 100 µM | – | > 100 µM | – | > 100 µM | – | > 100 µM | – | > 100 µM | > 100
NCCCn1c2c(c3ccccc3c1=O)C(=O)c1cc3c(cc1-2)OCO3 | – | 0.111 µM | 2.35 µM | 0.0273 µM | 0.658 µM | 0.117 µM | – | 0.407 µM | 3.66 µM | 0.241 µM | 3.1 µM | < 0.01 µM | 1.11 µM | 0.118 µM | 1.51 µM | 0.247 µM | 3.57 µM | 1.43 µM | 8.1 µM | 1.72
COc1ccc(-c2nc3sccn3c2/C=C/C(=O)c2cc(OC)c(OC)c(OC)c2)cc1OC | 1.99 µM | – | – | 2.62 µM | 6.03 µM | 1.84 µM | 4.98 µM | 1.72 µM | 5.83 µM | 3.36 µM | 20.4 µM | 2.72 µM | 4.79 µM | 3.1 µM | 9.3 µM | 2.6 µM | 10 µM | 2.84 µM | 19.1 µM | 5.43
C=C1C(=O)O[C@H]2[C@H]1CC/C(COC(=O)/C=C/c1cccnc1)=C\CC[C@@]1(C)O[C@@H]21 | 11.3 µM | 0.467 µM | 2.35 µM | 9.86 µM | 23.6 µM | 0.741 µM | 3.7 µM | 1.88 µM | 5.12 µM | 1.1 µM | 2.58 µM | 5.02 µM | 17.1 µM | 1.38 µM | 3.23 µM | 1.55 µM | 2.93 µM | 1.83 µM | 5.14 µM | 24.1
C=C1C(=O)OC2C1C(OC(=O)/C(C)=C/C)CC(O)(CCl)C1C(OC(C)=O)C=C(C)C21O (stereo not given) | – | – | 14 µM | – | > 67.3 µM | – | 9.39 µM | – | 42.6 µM | – | 32.9 µM | – | 31.9 µM | – | 25.7 µM | – | 20.7 µM | – | > 51.2 µM | 64.6
O=c1oc2ccccc2cc1-c1ccc([N+](=O)[O-])cc1 | – | – | > 100 µM | – | > 100 µM | – | > 100 µM | – | > 100 µM | – | > 100 µM | – | > 100 µM | – | > 100 µM | – | > 100 µM | – | > 100 µM | > 100
CC(C)(C)[Si](C)(C)OC1[C@@H](O[Si](C)(C)C(C)(C)C)[C@@H](CNC(=O)NC(=O)NC(=O)CI)O[C@H]1n1cnc2c(NC(=O)Nc3ccccc3)ncnc21 (stereo not given in full) | 0.651 µM | 3.38 µM | 12.6 µM | 1.57 µM | 11.9 µM | 0.0845 µM | 0.166 µM | 9.63 µM | 28 µM | 0.357 µM | 1.08 µM | 8.22 µM | 17.8 µM | 6.1 µM | 14.6 µM | 0.0864 µM | 0.155 µM | 7.83 µM | 20.8 µM | 3.17
CCOC(=O)c1[nH]c2cccc3c2c1CC(Br)C3=O (stereo not given) | – | – | 5.41 µM | – | 38.2 µM | – | 10.7 µM | – | 40.9 µM | – | 17.3 µM | – | 29.8 µM | – | 27.2 µM | – | 31.8 µM | – | 25.2 µM | –
CS(=O)(=O)c1ccc(Oc2nccc(-c3c(-c4ccc(F)cc4)ncn3C3CCNCC3)n2)cc1 | > 25 µM | > 25 µM | > 25 µM | > 25 µM | > 25 µM | > 20.6 µM | > 25 µM | > 25 µM | > 25 µM | > 25 µM | > 25 µM | > 25 µM | > 25 µM | > 25 µM | > 25 µM | > 25 µM | > 25 µM | > 25 µM | > 25 µM | > 25
Cc1cc(Cl)ccc1NC(=O)/C(Cc1nc2ccc(C(=O)c3ccccc3)cc2[nH]c1=O)=N/NC(=O)c1ccncc1 | – | – | > 100 µM | – | > 100 µM | – | > 100 µM | – | > 100 µM | – | > 100 µM | – | > 100 µM | – | > 100 µM | – | > 100 µM | – | > 100 µM | > 100
COc1cccc(-c2nc(-c3ccc(NS(=O)(=O)c4ccccc4)cc3)[nH]c2-c2ccnc(Br)c2)c1 | 1.92 µM | 2.83 µM | > 100 µM | 3.11 µM | > 100 µM | 2.86 µM | > 100 µM | 2.74 µM | > 100 µM | 2.98 µM | > 100 µM | 2.12 µM | 4.71 µM | 2.03 µM | 6.09 µM | 1.56 µM | 3.44 µM | 2.51 µM | 9.21 µM | > 100
COc1ccc2c(CN3CCC(CO)CC3)cc3cc4c(cc3c2c1)OCO4 | 0.474 µM | 0.141 µM | 11 µM | – | – | 0.286 µM | 1.72 µM | 0.418 µM | 9.17 µM | 0.227 µM | 4.65 µM | 0.194 µM | 1.41 µM | 0.296 µM | 1.26 µM | 0.144 µM | 0.49 µM | 0.275 µM | 1.41 µM | 2
OCc1ccc(N(Cc2ccc(F)cc2)C2CCC2)cc1Cl | 12.2 µM | 0.744 µM | 16.8 µM | 2.04 µM | 17.9 µM | 5.7 µM | 25.5 µM | 0.141 µM | 0.815 µM | 10.3 µM | 24.3 µM | 5.42 µM | 22.7 µM | 15.8 µM | 32 µM | 15.1 µM | 29.3 µM | 16.2 µM | 31.1 µM | 24.8
